Columns and labels:
femoral artery = assay: Vasodilator activity, femoral artery (technique of perfused paw); type: in vivo; parameters: key: O: no action; +: slight activity; ++: effect equal to half the effect of papaverine; +++: effect equal to that of papaverine; ++++: effect higher than that of papaverine; settings: intra-arterial, 30 mg/kg, anaesthetized dog, vs papaverine at same dose
Experimental: (3) The vasodilator activity was measured at the level of femoral artery on anaesthetized dog (technique of perfused paw). The tested substances were given intra-arterially at the rate of 30 mg/kg. Results are expressed with respect to papaverine tested at the same dose.
++: effect equal to half the effect of papaverine.
+++: effect equal to that of papaverine.
++++: effect higher than that of papaverine.

[1] = tested on: guinea-pig ileum (acetylcholine contractions); assay: Antispasmodic activity in vitro, contractions caused by acetylcholine; settings: added 15 minutes before spasm-producing agent
Experimental: (§1) (4) The antispasmodic activity was measured in vitro, on guinea-pig ileum, the contractions of which were caused by histammne (Hist.), acetylcholine (Achol) or barium chloride (BaCl2). The tested products were added to perfusion bath 15 minutes before the spasm-producing agents.
(§2) The dose is given in micograms (μg) per ml of bath causing complete spasm inhibition.

[2] = tested on: unanaesthetized, hypertension-suffering rat; assay: Antihypertensive activity (systolic arterial pressure), oral; type: in vivo; settings: 60 mg/kg, hypertensive rat, 3 hours
Experimental: (2) The antihypertensive activity was measured on unanaesthetized, hypertension-suffering rat. The tested substances were orally given at a rate of 60 mg/kg. The systolic arterial pressure was measured every 30 minutes for 2 hours before and for 3 hours after the tested product was given. Results are expressed as follows: […]
O: no reduction of arterial pressure.
+: reduction lower than 10 mm Hg.
++: reduction of 10 to 20 mm Hg.
+++: reduction higher than 20 mm Hg.

[3] = tested on: guinea-pig ileum (histamine contractions); assay: Antispasmodic activity in vitro, contractions caused by histamine; settings: added 15 minutes before spasm-producing agent
Experimental: as §1, §2

[4] = Acute toxicity, oral, LD50 (Litchfield and Wilcoxon); settings: mouse, in vivo, fasted male mice, confidence limits p=95% in brackets
Experimental: (1) The acute toxicity was determined on fasted male mice. The tested substances were orally administered and LD50 values (lethal dose for 50% of animals) were calculated according to the method of Litchfield and Wilcoxon (J. Pharmacol. exp. Ther. 96, 94-113, 1949). These LD50 values are given in mg/kg and also, when possible, with their confidence limits for p=95%.

Row | Compound | VASODILATOR ACTIVITY (femoral artery) | ANTISPASMODIC ACTIVITY ACHOL (dose causing complete spasm inhibition) [1] [μg per ml] | ANTIHYPERTENSIVE ACTIVITY [2] | ANTISPASMODIC ACTIVITY HIST. (dose causing complete spasm inhibition) [3] [μg per ml] | LD50 [4] [mg/kg]
1 | 1-(2,3-dihydro-5-benzo[b]thienyl)-2-(4-phenylbutylamino)-1-propanol [Example 18] | ++++ | 0.33 | +++ (reduction higher than 20 mm Hg) | 0.8 | –
2 | 1-(2-methyl-2,3-dihydro-5-benzo[b]furanyl-2-[4-(p-chlorophenyl)butylamino]- 1-propanol [No 65] | ++++ | 1.7 | +++ (reduction higher than 20 mm Hg) | 1.7 | –
3 | C[C@H](NCCCCc1ccccc1)[C@@H](O)c1ccc2c(c1)CCS2 (relative stereo) [No 98] | – | – | + (reduction lower than 10 mm Hg) | – | –
4 | CC(=O)O[C@@H](c1ccc2c(c1)CCS2)[C@H](C)NCCCCc1ccccc1 (relative stereo) [No 113] | – | – | + (reduction lower than 10 mm Hg) | – | –
5 | Cc1ccc(CCCCNC(C)C(O)c2ccc3c(c2)CCCCS3)cc1 (centres unmarked) [No 30] | +++ | 0.8 | +++ (reduction higher than 20 mm Hg) | 1.7 | –
6 | CC(CCCc1ccccc1)NC(C)C(O)c1ccc2c(c1)CCCS2 (centres unmarked) [No 42] | +++ | 1.7 | +++ (reduction higher than 20 mm Hg) | 1.7 | –
7 | C#CC(C)(C)NC(C)C(O)c1ccc2c(c1)CCCS2 (centres unmarked) [No 44] | ++ | 8.3 | +++ (reduction higher than 20 mm Hg) | 16.7 | –
8 | CC1Cc2cc(C(O)C(C)NCCCN3CCCC3)ccc2O1 (centres unmarked) [No 62] | 0 | > 16.7 | – | > 16.7 | 885
9 | CC(CCCc1ccccc1)NC(C)C(O)c1ccc2c(c1)CCS2 (centres unmarked) [No 63] | ++ | 0.8 | – | 0.8 | 1850
10 | CC1Cc2cc(C(O)C(C)NCCCOc3ccccc3)ccc2S1 (centres unmarked) [No 64] | +++ | 1.7 | +++ (reduction higher than 20 mm Hg) | 1.7 | –
11 | CC1Cc2cc(C(O)C(C)NCCCc3ccccc3)ccc2S1 (centres unmarked) [No 67] | +++ | 1.7 | +++ (reduction higher than 20 mm Hg) | 1.7 | –
12 | CCCCOCCOCCCNC(C)C(O)c1ccc2c(c1)CCCS2 (centres unmarked) [No 72] | ++ | 1.7 | – | 1.7 | 880
13 | COC(=O)CCCCCCCCCCNC(C)C(O)c1ccc2c(c1)CCCS2 (centres unmarked) [No 73] | +++ | 1.7 | – | 3.3 | > 4000
14 | CC(NCCCN1CCCC1=O)C(O)c1ccc2c(c1)CCCS2 (centres unmarked) [No 77] | 0 | 1.7 | – | 0.8 | 235
15 | CC(NCCOc1ccc2c(c1)CCC2)C(O)c1ccc2c(c1)CCCS2 (centres unmarked) [No 83] | +++ | 0.8 | – | 1.7 | > 4000
16 | CC(=O)Nc1ccc(OCCNC(C)C(O)c2ccc3c(c2)CCS3)cc1 (centres unmarked) [No 86] | +++ | 16.7 | – | 1.7 | 1420
17 | CC(NCCOc1ccc2ccccc2c1)C(O)c1ccc2c(c1)CCCS2 (centres unmarked) [No 88] | +++ | 1.7 | – | 1.7 | > 4000
18 | CC(NCCOc1ccc(C(C)(C)C)cc1)C(O)c1ccc2c(c1)CCCS2 (centres unmarked) [No 107] | +++ | 0.8 | – | 0.8 | > 4000
19 | COC(=O)c1ccc(OCCNC(C)C(O)c2ccc3c(c2)CCCS3)cc1 (centres unmarked) [No 114] | +++ | 3.3 | – | 0.8 | > 2000
20 | CCCCCCCCNC(C)C(OC(=O)C(C)C)c1ccc2c(c1)CCCS2 (centres unmarked) [No 139] | – | – | +++ (reduction higher than 20 mm Hg) | – | –
21 | CCCCCCCCNC(C)C(O)c1ccc2c(c1)CCCC2 (centres unmarked) [No 170] | +++ | 0.8 | – | 1.7 | ~2300
22 | CC(CCCc1ccccc1)NC(C)C(O)c1ccc2c(c1)CCC2 (centres unmarked) [No 173] | ++ | 0.8 | – | 0.8 | 2600
23 | CC(NCCOc1ccc(C(C)(C)C)cc1)C(O)c1ccc2c(c1)CCC2 (centres unmarked) [No 176] | +++ | 0.8 | – | 0.17 | > 4000
24 | CC(C(O)c1ccc2c(c1)CCC2)N1CCOC(c2ccccc2)C1C (centres unmarked) [No 177] | – | 1.7 | ++ (reduction of 10 to 20 mm Hg) | 1.7 | –
